We go through two compounds from patent publication US4329352A, “Piperidine derivatives of 3-hydroxy-thiophene-2-carboxylic acid esters and pharmaceutical formulations containing these compounds” (BASF Aktiengesellschaft, priority 1979, dated 1982).

Data set [1] relates to isolated left atria of male guineapigs. The experiment in a line: Anti-arrhythmic activity on isolated left guineapig atria (maximum driving rate). The arrangement: species or system guineapig (Pirbright white). The note with it: for R.A. = relative activity (maximum sequence frequency): Procainamide = 1.00; for Maximum sequence frequency EC 50%: concentration which produces a 50% decrease in the maximum sequence frequency: Tyrode's solution pH 7.4, 32° C.
Protocol: As a criterion of the anti-arrhythmic action, the frequency (in Hz) at which the atria are just still able to follow the sequence of pulses (the maximum driving rate) is determined by automatic continuous increase in frequency. The concentration which produces a 50% decrease in maximum driving rate, ie. the ED 50%, is calculated from the linear relationship between log concentration (mg/l) and relative decrease in maximum driving rate (Δ%).

A short description of data set [2]: Toxicity in rats, oral administration: dose at which toxic symptoms (changes in the initial ECG, cyanosis or cramp) occur. The settings on record: for TD50 / selectivity ratio: rat, in vivo; for selectivity ratio: read-out: Q (therapeutic range): quotient of toxic dose and anti-arrhythmically effective dose (ED 50%). Format: in vivo, rat (Sprague Dawley). As to the method: (§1) To determine the anti-arrhythmic activity, the substance is administered orally to rats (Sprague Dawley, weight 200-250 g) 45 minutes before the start of narcosis. The animals are narcotized with 100 mg/kg of sodium thiobutabarbital administered intraperitone-ally. The arrhythmogenic substance is aconitine which is infused intravenously, at a dosage rate of 0.005 mg/kg×min, 60 minutes after administration of the novel substance. In the case of untreated animals (N=52), arrhythmias are noted in the electrocardiogram after 2.74±0.07 min, and the occurrence of these can be delayed by anti-arrhythmic agents, to an extent which depends on the dose.
(§2) For further characterization of the substance, the anti-arrhythmic effect of the maximum tolerated dose is determined from the decimal-geometric dosage progression (factor ^3 .cuberoot.10) used in the experiments. In addition, the dose at which toxic symptoms (changes in the initial ECG, cyanosis or cramp) occur is determined. Moreover, the anti-arrhythmic activity of the compounds according to the invention is determined on isolated left atria of male guineapigs (Pirbright white, weight 350-450 g).

A short description of the next data set: in vivo. The settings on record: rat, in vivo; rats, oral; decimal-geometric dosage progression; read-out: Maximum effect: Dose (maximum tolerated dose). It is filed as in vivo, rat (Sprague Dawley). As to the method: as §1
(§3) The dose which prolongs the infusion duration by 50%, ie. the ED 50%, is determined from the linear relationship between log dose (mg/kg) of test substance and relative prolongation of aconitine infusion duration (Δ%).
as §2

The test system of data set [3] is aconitine-induced arrhythmia. The experiment in a line: in vivo. It is filed as in vivo, rat (Sprague Dawley). The method, then: as §1, §3, §2
For data set [4], the system named is isolated left atria of male guineapigs. The experiment in a line: Negatively inotropic effect on isolated left guineapig atria (decrease in contraction amplitude). More on the design: species or system guineapig (Pirbright white). The note with it: for R.A. = relative activity (force of contraction): Procainamide = 1.00; for Force of contraction EC 25%: concentration which produces a 25% decrease in the force of contraction: Tyrode's solution pH 7.4, 32° C. The method, then: Atria suspended in an organ bath (volume 125 ml) containing carbogen-saturated Tyrode's solution (pH 7.4, 32° C.) are prestressed with 1.0 g and are driven by square wave pulses of 1 Hz base rhythm and double stimulation threshold values (rheo base: 0.2-1.4 V, chronaxia: 0.3-0.5 msec).
Further, the concentration which produces a 25% decrease in amplitude, ie. the EC 25%, is determined, as a measure of the negatively inotropic effect, from the linear relationship between log concentration (mg/l) and relative change in contraction amplitude (Δ%).

Setting [5] is: isolated guineapig atria, compared with procainamide.
Setting [6] is: rats, oral, greater than procainamide.
The mark [7] stands for this setting: rats, oral, maximum tolerated dose.

Like-named read-outs stand apart in the source and are kept apart here.

Turning to `COC(=O)c1sccc1OCC(O)CN1CCC(O)(c2ccccc2)CC1` (stereo not shown) [Example 1, 3-[2-hydroxy-3-(4-phenyl-4-hydroxy-piperidino)-propoxy]-thiophene-2-carboxylic acid methyl ester], in data set [1] (isolated guineapig atria), the “R.A. = relative activity (maximum sequence frequency)” value is 68.7, the “Q: quotient of EC 25% force of contraction decrease : EC 50% maximum driving rate” value was found to be 2.6 and the “Maximum sequence frequency EC 50%: concentration which produces a 50% decrease in the maximum sequence frequency” value was determined as 1.47 µg/mL. In addition, in data set [1] (as great as that of procainamide), the “anti-arrhythmic effect on isolated guineapig atria, relative to procainamide” value is 69 times. In data set [1] (setting [5]), the “difference between anti-arrhythmic and negatively inotropic effect (quotient EC 25% : EC 50%), in words” value is “substantially greater than for procainamide”; the “therapeutic range as far as effects on guineapig atria are concerned, in words” value is “greater therapeutic range”. In data set [2] (rats, oral, changes in initial ECG, cyanosis or cramp, read-out: Toxicity: dose whose administration produces the first toxic symptoms), the TD50 turned out to be 464 mg/kg. Further, in data set [2] (rats, oral), the selectivity ratio stood at 9.9. Besides, in data set [2] (setting [6]), the “therapeutic range (toxic dose / ED 50%), relative to procainamide” value was 1.6 times. Also, the MTD in “in vivo” came to 215 mg/kg. In addition, in data set [3] (Procainamide = 1.00, rats, oral), the “R.A. = relative activity (effective dose)” value was 3.36. The “R.M.E. = relative maximum effect” value in data set [3] (Procainamide = 1.00, rats, oral, maximum tolerated dose) is recorded as 2.19. For the same compound, the ED50 in data set [3] (Rattus norvegicus, po, read-out: ED 50%: dose which prolongs the duration of aconitine infusion by 50%) worked out at 46.8 mg/kg. Further, the “Maximum effect: prolongation of duration of aconitine infusion, Δ %, at the maximum tolerated dose” value in data set [3] (setting [7]) is given as 296%. Also, the “anti-arrhythmic effect on aconitine-induced arrhythmia, relative to procainamide” value in data set [3] (setting [6]) lay in the range of 3 to 4 times. Besides, in data set [4], the “R.A. = relative activity (force of contraction)” value is given as 14.8 and the “Force of contraction EC 25%: concentration which produces a 25% decrease in the force of contraction” value stood at 3.80 µg/mL.
For the compound `CCN(CC)CCNC(=O)c1ccc(N)cc1` [Procainamide, procainamide, reference compound], in data set [1] (isolated guineapig atria), the “R.A. = relative activity (maximum sequence frequency)” value was found to be 1.00, the “Q: quotient of EC 25% force of contraction decrease : EC 50% maximum driving rate” value came out at 0.56 and the “Maximum sequence frequency EC 50%: concentration which produces a 50% decrease in the maximum sequence frequency” value was found to be 101 µg/mL. The compound further had a TD50 in data set [2] (po) of 1000 mg/kg. In addition, the selectivity ratio in data set [2] (rats, oral) was found to be 6.4. In addition, the “Maximum effect: prolongation of duration of aconitine infusion, Δ %, at the maximum tolerated dose” value in data set [3] (setting [7]) was 135%. Besides, in data set [4], the “R.A. = relative activity (force of contraction)” value worked out at 1.00 and the “Force of contraction EC 25%: concentration which produces a 25% decrease in the force of contraction” value came to 56.4 µg/mL.
